Patent US11001591B2, “TRAF 6 inhibitors” (HELMHOLTZ ZENTRUM MUENCHEN—DEUTSCHES FORSCHUNGSZENTRUM FÜR …, priority 2016, dated 2021)
Entries after “also recorded” stand apart in the source; their conditions may differ.

Tests used:
[1] = target: T1, TRAF6-UBC13 interaction (Homo sapiens, UniProt Q9Y4K3); experiment: ALPHAScreen TRAF6WTStrepII-Ubc13FH interaction assay; format: binding; conditions: serial dilution
T1 construct: RING-Zincfinger1 (RZ1) domain (residues 50-159) of TRAF6 wildtype; made in house; host or cells: E. coli BL21 codon plus RIPL
T1 sequence (Q9Y4K3 50-159): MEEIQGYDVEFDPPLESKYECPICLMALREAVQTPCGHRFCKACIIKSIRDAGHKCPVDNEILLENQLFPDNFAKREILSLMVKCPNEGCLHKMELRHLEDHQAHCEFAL
Source text: In order to identify small molecules that specifically target the RZ1 domain of TRAF6 and thereby prevent its binding to Ubc13, the ALPHAScreen technology (PerkinElmer) was chosen to detect TRAF6WTStrepII-Ubc13FH interaction in High-Throughput-Screenings as well as Structure Activity Relationship (SAR) analysis.
For performance of an automated ALPHAScreen assay, all following components were pre-diluted in ALPHAScreen buffer (1×PBS, 0.5% BSA, 0.01% Tween-20). First, the TRAF6 protein (end concentration 100 nM, 30 μL volume) was added to 384-well-opti-plates involving the MultiFlo dispensing system (BioTek) followed by transfer of the compounds via the Sciclone G3 transfer station (PerkinElmer). After addition of Ubc13FH (end concentration 75 nM, 10 μL volume) with the MultiFlo system and incubation for one hour at room temperature, both beads (Strep-Tactin Alpha Donor beads and Nickel-Chelate acceptor beads; end concentrations 4 μg each, 10 μL volume each) were mixed and added using the MultiFlo system in subdued light. Read-out of the plates occurred after another hour of incubation at room temperature. Statistical parameters including the coefficient of variation, Z′ factor and signal window were calculated to determine the quality of the HTS campaign. To evaluate the efficacy of the compounds, ALPHAScreen units of compound-treated samples were referred to DMSO control treated samples. Thereby, the TRAF6D57K mutant served as the control for minimum signal and was included on every plate of the screening. Compounds that inhibited TRAF6WTStrepII-Ubc13FH by more than 25% were considered as actives. After elimination of ALPHAScreen frequent hitter compounds and His-tag frequent hitters (Schorpp, K., I. Rothenaigner, E. Salmina, et al., Identification of Small-Molecule Frequent Hitters from AlphaScreen High-Throughput Screens. J Biomol Screen, 2014. 19(5): p. 715-26), 178 compounds were defined as primary hits and were subsequently tested in five-point serial dilution assays (2.5-40 μM) in TRAF6WTStrepII-Ubc13FH ALPHAScreen experiments. Only compounds with dose-dependent effects on TRAF6WTStrepII-Ubc13FH (n=27) were taken for further research. For analog testing, all compounds were analyzed in ten-point titration (0.2-100 μM) in TRAF6WTStrepII-Ubc13FH ALPHAScreen experiments. In parallel, the compounds were tested in the ALPHAScreen TruHits Kit (PerkinElmer) to rule out unspecific interference with the ALPHAScreen technology.

[2] = target: T2, TRAF6-Ubc13 binding (Homo sapiens, UniProt Q9Y4K3); experiment: Co-immunoprecipitation of HA-TRAF6 and endogenous Ubc13 in HEK 293T cells; format: cell-based; conditions: listed as HZM06-4
T2 construct: RING-Zincfinger1 (RZ1) domain (residues 50-159) of TRAF6 wildtype; expressed in transfected cells; host or cells: HEK 293T
T2 sequence (Q9Y4K3 50-159): T1 sequence (Q9Y4K3 50-159)
Method: To study the interaction of TRAF6 and Ubc13 in cells, 1×10^6 293T cells were seeded and after 18 hours cells were transfected with lpg pEF-HA empty or pEF-HA-TRAF6 RZ1 plasmid using the X-tremeGENE HP DNA transfection reagent (Roche). 6 hours upon transfection, cells were treated with compound or DMSO. After 42 hours further incubation, cells were harvested in Co-IP lysis buffer and HA-TRAF6 was immunoprecipitated with anti-HA affinity matrix (Roche). Binding of Ubc13 to TRAF6 was examined in Western Blot analysis.

- inhibitory activity in ALPHAScreen [1]: most prominent effect
SMILES: Cc1nn(-c2ccc3nnc(C)n3n2)c(C)c1CCC(=O)N1CCC(Cc2ccccc2)C1 (centres unmarked) [Compound 31, 1-(3-benzylpyrrolidin-1-yl)-3-(3,5-dimethyl-1-(3-methyl-[1,2,4]triazolo[4,3-b]pyridazin-6-yl)-1H-pyrazol-4-yl)propan-1-one]
- interaction of endogenous Ubc13 with ectopically expressed HA-TRAF6 [2]: active in cells; also recorded: most active analogs
